For this test, the target named is human SCTR (Homo sapiens, UniProt P47872). Put plainly: agonist-induced β-arr2-GFP translocation. The conditions noted are these: Supplementary Tables S1 and S2, decimal comma, '-' not detectable (Figure 4); for β-arrestin2-GFP agonism efficacy: % of wild-type secretin; for EC50: U2OS-SCTR/β-arr2-GFP cells, 20 min at 37 °C, mean of at least three independent experiments in duplicates, read-out: β-arrestin2-GFP agonism potency. More on the design: expressed in transfected cells; host or cells: U2OS (human osteosarcoma), stably co-transfected with β-arrestin2-GFP. It is filed as cell-based. An excerpt:
U2OS-SCTR/β-arr2-GFP: human osteosarcoma cell line U2OS (purchased from ATCC/LGC Standards, Wesel, Germany) were stably transfected with plasmids encoding SCTR (Homo sapiens) and the fusion protein β-arrestin2-green fluorescent protein (GFP) (Rattus norvegicus-Aequorea victoria) (β-arr2-GFP).
To evaluate reactivity of human SCTR exposed to different ligand variants, intracellular translocation of a fusion protein of β-arrestin2 and green fluorescent protein was utilized. For evaluation of activation, receptor-mediated recruitment of cytoplasmic β-arr2-GFP was monitored through its translocation into condensed intracellular vesicles. The extent of translocation events was quantified by determining the increasing granularization of the intracellular fluorescence utilizing an automated high-throughput microscope in combination with computational algorithms to estimate potency (EC50) and efficacy, thus characterizing ligand-SCTR interaction. U2OS-SCTR/β-arr2-GFP cells were seeded in 96-well cell culture plates to 60–80% confluence. On the following day, preceding stimulation, cells were incubated for one hour in serum-free medium. Ligand variants were applied as serial dilutions in assay buffer C1. After preincubation, supernatant was discarded by tapping plates overhead repeatedly. For stimulation, 50 µL of ligand dilution was applied per well in duplicates and incubated for 20 min at 37 °C. Successively, cells were fixed by applying 4% buffered formaldehyde (Herbeta Arzneimittel, Berlin, Germany) for 10 min at room temperature and consecutively permeabilized for 10 min at room temperature with 0.1% TritonX-100 in PBS, containing DAPI (4′,6-Diamidin-2-phenylindol, SigmaAldrich, Deisenhofen, Germany, 1 µg/mL) to counterstain nuclei. Microscopic images were recorded by an IN Cell Analyzer 1000 (GE Healthcare, Reading, UK) with 20× magnification at 5 frames per well in a 96-well format. Image processing was performed with IN Cell Investigator software (GE Healthcare, Reading, UK), applying the provided granularity algorithm. The output of the analysis was indicated as vesicle area/cell and was utilized for calculation of concentration–response curves. Parameters derived from curve fitting included the concentration of half-maximal activity (EC50), and intrinsic activity. Intrinsic activity was normalized defining reaction to non-modified wild type secretin as the 100% curve maximum value.

Sequence of human SCTR (P47872 23-440): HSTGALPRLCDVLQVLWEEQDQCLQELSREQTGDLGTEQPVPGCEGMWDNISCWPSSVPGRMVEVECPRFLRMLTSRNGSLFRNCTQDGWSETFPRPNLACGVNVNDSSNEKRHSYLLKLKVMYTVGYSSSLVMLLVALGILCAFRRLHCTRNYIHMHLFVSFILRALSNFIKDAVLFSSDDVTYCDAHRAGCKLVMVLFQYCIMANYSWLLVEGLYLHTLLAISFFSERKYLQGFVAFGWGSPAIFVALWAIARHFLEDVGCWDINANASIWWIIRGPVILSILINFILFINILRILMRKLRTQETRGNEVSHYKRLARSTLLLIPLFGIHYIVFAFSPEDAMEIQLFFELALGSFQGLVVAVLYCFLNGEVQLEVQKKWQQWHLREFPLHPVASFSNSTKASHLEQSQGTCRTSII

As to `CC(C)C[C@H](NC(=O)CNC(=O)[C@H](CCC(N)=O)NC(=O)[C@H](CC(C)C)NC(=O)[C@H](CC(C)C)NC(=O)[C@H](CCCNC(=N)N)NC(=O)[C@H](CCC(N)=O)NC(=O)[C@H](CC(C)C)NC(=O)[C@H](CCCNC(=N)N)NC(=O)[C@H](C)NC(=O)CNC(=O)[C@H](CCC(=O)O)NC(=O)[C@H](CCCNC(=N)N)NC(=O)[C@H](CC(C)C)NC(=O)[C@H](CCCNC(=N)N)NC(=O)[C@H](CO)NC(=O)[C@@H](CC(C)C)NC(=O)[C@H](CCC(=O)O)NC(=O)[C@H](CO)NC(=O)[C@@H](NC(=O)[C@H](Cc1ccccc1)NC(=O)[C@@H](NC(=O)CNC(=O)[C@H](CC(=O)O)NC(=O)[C@H](CO)NC(=O)[C@@H](N)Cc1c[nH]cn1)[C@@H](C)O)[C@@H](C)O)C(=O)N[C@H](C(=O)O)C(C)C` [Peptide 94], the β-arrestin2-GFP agonism efficacy is listed as 94,17 % Sec.
With `CC(C)C[C@H](NC(=O)CNC(=O)[C@H](CCC(N)=O)NC(=O)[C@H](CC(C)C)NC(=O)[C@H](CC(C)C)NC(=O)[C@H](CCCNC(=N)N)NC(=O)[C@H](CCC(N)=O)NC(=O)[C@H](CC(C)C)NC(=O)[C@H](CCCNC(=N)N)NC(=O)[C@H](C)NC(=O)CNC(=O)[C@H](CCC(=O)O)NC(=O)[C@H](CCCNC(=N)N)NC(=O)[C@H](CC(C)C)NC(=O)[C@H](CCCNC(=N)N)NC(=O)[C@H](CO)NC(=O)[C@H](CC(C)C)NC(=O)[C@H](CCC(=O)O)NC(=O)[C@H](CO)NC(=O)[C@@H](NC(=O)[C@H](Cc1ccccc1)NC(=O)[C@@H](NC(=O)CNC(=O)[C@H](CC(=O)O)NC(=O)[C@@H]1CCCN1C(=O)[C@@H](N)Cc1c[nH]cn1)[C@@H](C)O)[C@@H](C)O)C(=O)N[C@H](C(=O)O)C(C)C` [Peptide 74], the β-arrestin2-GFP agonism efficacy was 106,23 % Sec and the EC50 was found to be 3.37 nM.
In the case of “HSDGTFTsELSRLREGARLQRLLQGLV [Peptide 92, D-amino acid substitution variant of human secretin]”, the β-arrestin2-GFP agonism efficacy is on record as 90,37 % Sec.
Still for that read-out and setting: as for `CC(C)C[C@H](NC(=O)CNC(=O)[C@H](CCC(N)=O)NC(=O)[C@H](CC(C)C)NC(=O)[C@H](CC(C)C)NC(=O)[C@H](CCCNC(=N)N)NC(=O)[C@H](CCC(N)=O)NC(=O)[C@H](CC(C)C)NC(=O)[C@H](CCCNC(=N)N)NC(=O)[C@H](C)NC(=O)CNC(=O)[C@H](CCC(=O)O)NC(=O)[C@H](CCCNC(=N)N)NC(=O)[C@H](CC(C)C)NC(=O)[C@H](CCCNC(=N)N)NC(=O)[C@H](CO)NC(=O)[C@H](CC(C)C)NC(=O)[C@H](CCC(=O)O)NC(=O)[C@H](CO)NC(=O)[C@@H](NC(=O)[C@H](Cc1ccccc1)NC(=O)[C@@H](NC(=O)CNC(=O)[C@H](CC(=O)O)NC(=O)[C@H](CO)NC(=O)[C@H](N)Cc1c[nH]cn1)[C@@H](C)O)[C@@H](C)O)C(=O)N[C@H](C(=O)O)C(C)C` [Peptide 86], the figure is 107,20 % Sec.
In the case of `CC(C)C[C@H](NC(=O)CNC(=O)[C@H](CCC(N)=O)NC(=O)[C@H](CC(C)C)NC(=O)[C@H](CC(C)C)NC(=O)[C@H](CCCNC(=N)N)NC(=O)[C@H](CCC(N)=O)NC(=O)[C@H](CC(C)C)NC(=O)[C@H](CCCNC(=N)N)NC(=O)[C@H](C)NC(=O)CNC(=O)[C@H](CCC(=O)O)NC(=O)[C@H](CCCNC(=N)N)NC(=O)[C@H](CC(C)C)NC(=O)[C@H](CCCNC(=N)N)NC(=O)[C@H](CO)NC(=O)[C@H](CC(C)C)NC(=O)[C@H](CCC(=O)O)NC(=O)[C@H](CO)NC(=O)[C@@H](NC(=O)[C@H](Cc1ccccc1)NC(=O)[C@@H](NC(=O)CNC(=O)[C@H](CC(=O)O)NC(=O)[C@H](CO)NC(=O)[C@@H]1CCCN1)[C@@H](C)O)[C@@H](C)O)C(=O)N[C@H](C(=O)O)C(C)C` [Peptide 73], the β-arrestin2-GFP agonism efficacy is given as 96,57 % Sec and the EC50 worked out at 39.1 nM.
On the same counts, the results for `CC(C)C[C@H](NC(=O)CNC(=O)[C@H](CCC(N)=O)NC(=O)[C@H](CC(C)C)NC(=O)[C@H](CC(C)C)NC(=O)[C@H](CCCNC(=N)N)NC(=O)[C@H](CCC(N)=O)NC(=O)[C@H](CC(C)C)NC(=O)[C@H](CCCNC(=N)N)NC(=O)[C@H](C)NC(=O)CNC(=O)[C@H](CC(=O)O)NC(=O)[C@H](CCCNC(=N)N)NC(=O)[C@H](CC(C)C)NC(=O)[C@H](CCCNC(=N)N)NC(=O)[C@H](CO)NC(=O)[C@H](CC(C)C)NC(=O)[C@H](CCC(=O)O)NC(=O)[C@H](CO)NC(=O)[C@@H](NC(=O)[C@H](Cc1ccccc1)NC(=O)[C@@H](NC(=O)CNC(=O)[C@H](CC(=O)O)NC(=O)[C@H](CO)NC(=O)[C@@H](N)Cc1c[nH]cn1)[C@@H](C)O)[C@@H](C)O)C(=O)N[C@H](C(=O)O)C(C)C` [Peptide 69] are 111,23 % Sec and 4.52 nM.
On the same counts, the results for `CC(C)C[C@H](NC(=O)[C@H](CCCNC(=N)N)NC(=O)[C@H](C)NC(=O)CNC(=O)[C@H](CCC(=O)O)NC(=O)[C@H](CCCNC(=N)N)NC(=O)[C@H](CC(C)C)NC(=O)[C@H](CCCNC(=N)N)NC(=O)[C@H](CO)NC(=O)[C@H](CC(C)C)NC(=O)[C@H](CCC(=O)O)NC(=O)[C@H](CO)NC(=O)[C@@H](NC(=O)[C@H](Cc1ccccc1)NC(=O)[C@@H](NC(=O)CNC(=O)[C@H](CC(=O)O)NC(=O)[C@H](CO)NC(=O)[C@@H](N)Cc1c[nH]cn1)[C@@H](C)O)[C@@H](C)O)C(=O)N[C@@H](CCC(N)=O)C(=O)N[C@@H](CCCNC(=N)N)C(=O)N[C@@H](CC(C)C)C(=O)N[C@@H](CC(C)C)C(=O)N[C@@H](CCC(N)=O)C(=O)NCC(=O)N1CCC[C@H]1C(=O)N[C@H](C(=O)O)C(C)C` [Peptide 84] are 95,03 % Sec and 72.6 nM.
For the molecule `CC(C)C[C@H](NC(=O)CNC(=O)[C@H](CCC(N)=O)NC(=O)[C@H](CC(C)C)NC(=O)[C@H](CC(C)C)NC(=O)[C@H](CCCNC(=N)N)NC(=O)[C@H](CCC(N)=O)NC(=O)[C@H](CC(C)C)NC(=O)[C@H](CCCNC(=N)N)NC(=O)[C@H](C)NC(=O)CNC(=O)[C@H](CCC(=O)O)NC(=O)[C@H](CCCNC(=N)N)NC(=O)[C@H](CC(C)C)NC(=O)[C@H](CCCNC(=N)N)NC(=O)[C@H](CO)NC(=O)[C@H](CC(C)C)NC(=O)[C@@H](CCC(=O)O)NC(=O)[C@H](CO)NC(=O)[C@@H](NC(=O)[C@H](Cc1ccccc1)NC(=O)[C@@H](NC(=O)CNC(=O)[C@H](CC(=O)O)NC(=O)[C@H](CO)NC(=O)[C@@H](N)Cc1c[nH]cn1)[C@@H](C)O)[C@@H](C)O)C(=O)N[C@H](C(=O)O)C(C)C` [Peptide 93], the β-arrestin2-GFP agonism efficacy is given as 100,40 % Sec.
Still for that read-out and setting: as for `CC(C)C[C@H](NC(=O)CNC(=O)[C@H](CCC(N)=O)NC(=O)[C@H](CC(C)C)NC(=O)[C@H](CC(C)C)NC(=O)[C@H](CCCNC(=N)N)NC(=O)[C@H](CCC(N)=O)NC(=O)[C@H](CC(C)C)NC(=O)[C@H](CCCNC(=N)N)NC(=O)[C@H](C)NC(=O)CNC(=O)[C@H](CCC(=O)O)NC(=O)[C@H](CCCNC(=N)N)NC(=O)[C@H](CC(C)C)NC(=O)[C@H](CCCNC(=N)N)NC(=O)[C@H](CO)NC(=O)[C@H](CC(C)C)NC(=O)[C@H](CCC(=O)O)NC(=O)[C@H](CO)NC(=O)[C@@H](NC(=O)[C@H](Cc1ccccc1)NC(=O)[C@@H](NC(=O)CNC(=O)[C@H](CC(=O)O)NC(=O)[C@@H](CO)NC(=O)[C@@H](N)Cc1c[nH]cn1)[C@@H](C)O)[C@@H](C)O)C(=O)N[C@H](C(=O)O)C(C)C` [Peptide 87], the figure is 91,57 % Sec; as for `CC(C)C[C@H](NC(=O)CNC(=O)[C@H](CCC(N)=O)NC(=O)[C@H](CC(C)C)NC(=O)[C@H](CC(C)C)NC(=O)[C@H](CCCNC(=N)N)NC(=O)[C@H](CCC(N)=O)NC(=O)[C@H](CC(C)C)NC(=O)[C@H](CCCNC(=N)N)NC(=O)[C@H](C)NC(=O)CNC(=O)[C@H](CCC(=O)O)NC(=O)[C@H](CCCNC(=N)N)NC(=O)[C@H](CC(C)C)NC(=O)[C@H](CCCNC(=N)N)NC(=O)[C@H](CO)NC(=O)[C@H](CC(C)C)NC(=O)[C@H](CCC(=O)O)NC(=O)[C@H](CO)NC(=O)[C@@H](NC(=O)[C@H](Cc1ccccc1)NC(=O)[C@H](NC(=O)CNC(=O)[C@H](CC(=O)O)NC(=O)[C@H](CO)NC(=O)[C@@H](N)Cc1c[nH]cn1)[C@H](C)O)[C@@H](C)O)C(=O)N[C@H](C(=O)O)C(C)C` [Peptide 89], 102,97 % Sec.
